# In patent publication US20020155562A1, “Glutathionylspermidine synthetase and processes for recovery and use thereof” (Leopold Flohe, priority 1996, published 2002):
# Key:
# [1] = tested on: glutathionylspermidine synthetase (GspS); assay: Kinetic analysis of GspS by HPLC determination of the product Gsp; assay type: biochemical, C. fasciculata; settings: 25.0° C.; for Km: substrates of GspS, rapid equilibrium random-order mechanism, pH 7.5, 5 mM magnesium, read-out: limiting Km (dissociation constant of the quarternary complex); for Ki: pH 7.5
# Description: Production of starting material: C. fasciculata was grown in a medium previously described (27) in a 100-1 fermenter at 27° C. with continuous stirring (200 rpm) and aeration (0.1 vvm). Organisms were harvested in the late logarithmic growth phase by continous flow centrifugation. The pellet was resuspended with 100 mM HEPES buffer (pH 7.5) containing 1 mM DTT and 1 mM MgSO4. After centrifugation the cells were stored at −20° C. GspS, Assay: The assays were carried out at 25.0° C. in a volume of 0.9 ml containing 50 mM Bis-Tris-propane, 50 mM Tris, pH 7.5, 5 mM MgSO4, 1 mM EDTA, 5 mM DTT, 5 mM ATP, 10 mM GSH, and 10 mM spermidine (1). The assay for TS was carried out as described by Smith et al. (1). Aliquots were taken after 20 min. For thiol analysis a precolumn derivatization with the fluorescent thiol-specific reagent, monobromobimane (Calbiochem), was used as described previously (2). All samples for HPLC analysis were diluted four-fold with water. Separation and analytical conditions were as described previously (28). HPLC-analysis was performed with a Jasco-HPLC-system consisting of an autosampler (851-AS), a pump (PU-980), a ternary gradient unit (LG-980-02), and a highly sensitive fluorescence detector (FP-920), which enabled a precise analysis of the small product peak in the presence of numerous other and larger ones. An external standard (0.04 mM Gsp) was used for integration calibration of the samples.
# All kinetic experiments were carried out at 25.0° C. in a volume of 0.9 ml containing 50 mM Bis-Tris-propane, 50 mM Tris, pH 7.5, 1 mM EDTA, 5 mM DTT and variable concentrations of ATP (0.10, 0.13, 0.18, 0.28, 0.66 mM ATP), GSH (0.36, 0.47, 0.66, 1.11, 3.57 mM GSH), and spermidine (0.36, 0.47, 0.66, 1.11, 3.57 mM spermidine), respectively. The enzymatic tests for kinetic studies except the ADP inhibition studies were performed in the presence of phosphoenolpyruvate (10 mM) and pyruvate kinase (0.5 units). A fixed magnesium concentration of 5 mM and a GspS content of 0.072 mg (0.923 μM) was used. Aliquots were taken at 15 min and 30 min. GspS activity was analyzed by product determination as described in example 1.
# [2] = tested on: glutathionylspermidine synthetase (GspS); assay: Malachite green colorimetric assay for liberation of inorganic phosphate; assay type: biochemical, C. fasciculata; settings: ADP 0-10 mM at ATP 0.2-5 mM; competitive with respect to ATP
# Description: FIG. 9. Malachite green colorimetric assay for liberation of inorganic phosphate. The malachite green calorimetric assay for liberation of inorganic phosphate (1) was used for fast detection of GspS activity.
# The standard assay was carried out at 25.0° C. in a volume of 0.15 ml containing 50 mM Bis-Tris-propane, 50 mM Tris, pH 7.5, 5 mM MgSO4, 1 mM EDTA, 5 mM DTT, 5 mM ATP, 10 mM GSH, 10 mM spermidine, and GspS. After an incubation of 10 min the malachite green reagent was added for detection of GspS activity.
# Concentration of ATP (see heading) and ADP (see table).
# The liberation of inorganic phosphate from ATP can be easily visualized by malachite green (FIG. 9). The test is amply used to monitor ATP hydrolyzing activities and is correspondingly unspecific. […] This finding enabled us to use this fast and convenient test to measure specifically GspS activity which is accompanied by release of inorganic phosphate from ATP in the presence of glutathione, spermidine, and magnesium ions. The test can be easily adapted to mass screening as outlined below.
Compound,Km [1],other results
"N[C@@H](CCC(=O)N[C@@H](CS)C(=O)NCC(=O)O)C(=O)O [GSH, glutathione]",2510 ± 330 µM,
"N[C@@H](CCC(=O)N[C@@H](CS)C(=O)NCC(=O)NCCCCNCCCNC(=O)CNC(=O)[C@H](CS)NC(=O)CC[C@H](N)C(=O)O)C(=O)O [TSH, N^1, N^8-bis(glutathionyl)spermidine]",,"Ki ([1]; feed-back inhibition of GspS, competed by GSH): 480 µM"
NCCCCNCCCN [spermidine],470 ± 90 µM,
Nc1ncnc2c1ncn2[C@@H]1O[C@H](COP(=O)(O)OP(=O)(O)O)[C@@H](O)[C@H]1O [ADP],,"inhibition of GspS [2]: significantly inhibits; Ki ([1]; inhibition of GspS, competitive with respect to ATP, no ATP regenerating system): 80 µM"
adenosyltriphosphate [Mg^2+-ATP],250 ± 20 µM,
